System: CD1 female mouse brain lipidome
Assay: Brain-region lipid levels (HPLC/MS/MS lipidomics) 2 h after single i.p. 3 mg/kg CP 55,940 vs vehicle
Format: in vivo
Design: N-arachidonoyl phenylalanine level, Mean / N-stearoyl tryptophan level, Mean / N-stearoyl proline level, Mean / N-stearoyl leucine level, Mean / N-stearoyl phenylalanine level, Mean / N-stearoyl serine level, Mean / N-stearoyl methionine level, Mean: unit: moles per gram
Details: thalamus
Experimental: The Bloomington Institutional Animal Care and Use Committee of Indiana University reviewed and approved the animal procedures. Female mice from the CD1 strain were utilized to match our study examining THC’s effects on the brain lipidome ([Leishman et al., 2018]). Mice were given a single i.p. injection of either 3 mg/kg CP or 1:1:18 cremophor:ethanol:saline vehicle (please refer to the section “3 mg/kg CP Is Relevant for Synthetic Cannabinoid Abuse and Has Stronger Effects on the Female Mouse Brain Lipidome During Adolescence” for a justification of dose and use of female mice). Three different age groups were given injections: PND 35 and PND 50 adolescents, and adult mice (PND 113). At least eight mice in each age group received CP and at least eight received vehicle. Matching the THC study time course ([Leishman et al., 2018]), mice were sacrificed via rapid decapitation 2 h after injection. Brains were immediately removed and flash-frozen in liquid nitrogen, and then stored at -80°C until dissections were performed. Brains were dissected on an ice-cold dissection plate into the following regions: STR, HIPP, CER, THAL, CTX, HYP, MID, and STEM. These abbreviations for these brain areas will be used exclusively when discussing the results generated by these specific dissections. Each dissected area was immediately placed in liquid nitrogen and then stored at -80°C until used for lipid extraction.
Tissue extracts were performed as previously described ([Bradshaw et al., 2006]; [Stuart et al., 2013]; [Raboune et al., 2014]; [Leishman et al., 2016a],[b], [2017], [2018]). First, samples were shock frozen in liquid nitrogen, weighed, and transferred to a centrifuge tube. The mass of the largest sample was multiplied by 50 to determine how many milliliters of HPLC-grade methanol (Fisher, Fair Lawn, NJ, United States) to add. Then, samples were spiked with 500 pmol deuterium-labeled NAGly (d8NAGly; Cayman Chemical, Ann Arbor, MI, United States). Samples were placed on ice in darkness for 2 h then individually homogenized and centrifuged at 19,000 × g for 20 min at 20°C. Supernatants were diluted with HPLC water (purified in house) to make a solution of 75% water, 25% supernatant. Lipids were partially purified on C18 solid phase extraction columns (Agilent, Palo Alto, CA, United States). A series of four elutions with 1.5 mL of 60%, 75%, 85%, and 100% methanol were collected ([Stuart et al., 2013]; [Leishman et al., 2016a],[b], [2018]).
As previously described ([Bradshaw et al., 2006]; [Tan et al., 2006]; [Smoum et al., 2010]; [Stuart et al., 2013]; [Tortoriello et al., 2013]; [Raboune et al., 2014]; [Leishman et al., 2016a],[b], [2017], [2018]), samples were analyzed using an Applied Biosystems API 3000 triple quadrupole mass spectrometer with electrospray ionization (Foster City, CA, United States). Using an Agilent XDB-C18 reversed phase analytical column and optimized mobile phase gradients, 20 μL from each elution were chromatographed. Two Shimadzu 10ADvp pumps (Columbia, MD, United States) provided the pressure for gradient elution. Mobile phase A: 20% methanol, 80% water (v/v) and 1 mM ammonium acetate (Sigma, St. Louis, MO, United States). Mobile phase B: 100% methanol, 1 mM ammonium acetate. Every method run began with 0% mobile phase B, reached 100% mobile phase B flowing at 0.2 mL/min, and gradually returned to 0% mobile phase B.
This screening library will be referred to as the lipidome when discussing data from this study. HPLC/MS/MS data were analyzed using Analyst software (Applied Biosystems) ([Bradshaw et al., 2006]; [Tan et al., 2006]; [Stuart et al., 2013]; [Tortoriello et al., 2013]; [Raboune et al., 2014]; [Leishman et al., 2016a],[b], [2017], [2018]). Chromatograms (Supplementary Figure 3) were generated by determining the retention time of analytes from the analytical column with a [M-1] or [M+1] parent peak and a fragmentation peak corresponding to the programmed values. […]

[1] = PND 50 female mice, 3 mg/kg CP 55,940
[2] = WT adult female mice, 3mg/kg CP 55,940

CCCCCCC(C)(C)c1ccc([C@@H]2C[C@H](O)CC[C@H]2CCCO)c(O)c1 [CP 55,940]
N-palmitoyl serine: Direction (relative to Veh) (PND 50, 3 mg/kg CP 55,940): ↓
N-palmitoyl serine: Magnitude (x Veh level) (PND 50, 3 mg/kg CP 55,940): 0.82 x Veh level
N-stearoyl serine: Direction (relative to Veh) (PND 50, 3 mg/kg CP 55,940): ↓
N-stearoyl serine: Magnitude (x Veh level) (PND 50, 3 mg/kg CP 55,940): 0.87 x Veh level
Oleic acid: Direction (relative to Veh) (PND 50, 3 mg/kg CP 55,940): ↓
Oleic acid: Magnitude (x Veh level) (PND 50, 3 mg/kg CP 55,940): 0.83 x Veh level
PGE2: Direction (relative to Veh) (PND 50, 3 mg/kg CP 55,940): ↓
PGE2: Magnitude (x Veh level) (PND 50, 3 mg/kg CP 55,940): 0.74 x Veh level
PGF2α: Direction (relative to Veh) (PND 50, 3 mg/kg CP 55,940): ↓
PGF2α: Magnitude (x Veh level) (PND 50, 3 mg/kg CP 55,940): 0.84 x Veh level
2-arachidonoyl glycerol level, Mean [1]: 2.19E-10
2-linoleoyl glycerol level, Mean [1]: 2.06E-10
2-oleoyl glycerol level, Mean [1]: 2.79E-09
2-palmitoyl glycerol level, Mean [1]: 1.02E-09
6-ketoPGF1α level, Mean [1]: 1.21E-11
11-OH-THC level, Mean [1]: BDL
11-nor-9-carboxyTHC level, Mean [1]: BDL
Arachidonic acid level, Mean [1]: 3.32E-10
Cannabidiol level, Mean [1]: BDL
Linoleic acid level, Mean [1]: 2.28E-10
N- stearoyl valine level, Mean [1]: 1.2E-13
N-arachidonoyl GABA level, Mean [1]: 1.06E-11
N-arachidonoyl dopamine level, Mean [1]: BDL
N-arachidonoyl ethanolamine level, Mean [1]: 3.67E-11
N-arachidonoyl glycine level, Mean [1]: 2.22E-12
N-arachidonoyl phenylalanine level, Mean [1]: 2.35E-13
N-arachidonoyl proline level, Mean [1]: BDL
N-arachidonoyl serine level, Mean [1]: 9.47E-12
N-arachidonoyl taurine level, Mean [1]: 2.48E-11
N-arachidonoyl tryptophan level, Mean [1]: BDL
N-arachidonoyl tyrosine level, Mean [1]: 3.46E-13
N-docosahexaenoyl GABA level, Mean [1]: 1.17E-12
N-docosahexaenoyl ethanolamine level, Mean [1]: 4.85E-11
N-docosahexaenoyl glycine level, Mean [1]: 2.76E-13
N-docosahexaenoyl leucine level, Mean [1]: 1.83E-13
N-docosahexaenoyl proline level, Mean [1]: BDL
N-docosahexaenoyl serine level, Mean [1]: 1.8E-11
N-docosahexaenoyl tryptophan level, Mean [1]: BDL
N-docosahexaenoyl tyrosine level, Mean [1]: 5.89E-13
N-docosahexaenoyl valine level, Mean [1]: BDL
N-linoleoyl GABA level, Mean [1]: 6.3E-13
N-linoleoyl ethanolamine level, Mean [1]: 5.72E-11
N-linoleoyl glycine level, Mean [1]: 1.48E-13
N-linoleoyl leucine level, Mean [1]: 4.17E-14
N-linoleoyl proline level, Mean [1]: BDL
N-linoleoyl serine level, Mean [1]: 6.59E-11
N-linoleoyl tryptophan level, Mean [1]: BDL
N-linoleoyl valine level, Mean [1]: BDL
N-nervonoyl valine level, Mean [1]: BDL
N-oleoyl GABA level, Mean [1]: 4.02E-12
N-oleoyl alanine level, Mean [1]: 7.11E-13
N-oleoyl dopamine level, Mean [1]: BDL
N-oleoyl ethanolamine level, Mean [1]: 9.26E-11
N-oleoyl glycine level, Mean [1]: 1.74E-12
N-oleoyl leucine level, Mean [1]: 5.99E-13
N-oleoyl methionine level, Mean [1]: 2.91E-13
N-oleoyl phenylalanine level, Mean [1]: 9.22E-13
N-oleoyl proline level, Mean [1]: BDL
N-oleoyl serine level, Mean [1]: 1.27E-10
N-oleoyl tryptophan level, Mean [1]: BDL
N-oleoyl tyrosine level, Mean [1]: 4.03E-13
N-palmitoyl GABA level, Mean [1]: 1.06E-11
N-palmitoyl alanine level, Mean [1]: 2.52E-12
N-palmitoyl ethanolamine level, Mean [1]: 7.34E-11
N-palmitoyl glycine level, Mean [1]: 9.61E-12
N-palmitoyl leucine level, Mean [1]: 1.53E-12
N-palmitoyl methionine level, Mean [1]: 1.27E-12
N-palmitoyl phenylalanine level, Mean [1]: 1.34E-12
N-palmitoyl proline level, Mean [1]: BDL
N-palmitoyl serine level, Mean [1]: 2.63E-11
N-palmitoyl tryptophan level, Mean [1]: BDL
N-palmitoyl tyrosine level, Mean [1]: 8.81E-13
N-palmitoyl valine level, Mean [1]: 1.92E-13
N-stearoyl GABA level, Mean [1]: 1.06E-11
N-stearoyl alanine level, Mean [1]: 5.6E-13
N-stearoyl ethanolamine level, Mean [1]: 3.31E-11
N-stearoyl glycine level, Mean [1]: 1.16E-12
N-stearoyl leucine level, Mean [1]: 1.04E-12
N-stearoyl methionine level, Mean [1]: 8.73E-13
N-stearoyl phenylalanine level, Mean [1]: 1.21E-12
N-stearoyl proline level, Mean [1]: BDL
N-stearoyl serine level, Mean [1]: 4.06E-11
N-stearoyl tryptophan level, Mean [1]: BDL
N-stearoyl tyrosine level, Mean [1]: 1.18E-13
Oleic acid level, Mean [1]: 3.18E-10
PGE2 level, Mean [1]: 8.74E-11
THC level, Mean [1]: BDL
2-arachidonoyl glycerol level, Mean [2]: 3E-09
2-linoleoyl glycerol level, Mean [2]: 2.71E-10
2-oleoyl glycerol level, Mean [2]: 3.61E-09
2-palmitoyl glycerol level, Mean [2]: 8.84E-11
6-ketoPGF1α level, Mean [2]: 3.33E-11
Arachidonic acid level, Mean [2]: 9.32E-10
Linoleic acid level, Mean [2]: 4.92E-10
N-arachidonoyl GABA level, Mean [2]: 2.04E-11
N-arachidonoyl alanine level, Mean [2]: 9.44E-13
N-arachidonoyl ethanolamine level, Mean [2]: 1.69E-11
N-arachidonoyl glycine level, Mean [2]: 5.38E-13
N-arachidonoyl phenylalanine level, Mean [2]: 1.15E-13
N-arachidonoyl taurine level, Mean [2]: 5.3E-11
N-arachidonoyl tyrosine level, Mean [2]: 6.37E-13
N-docosahexaenoyl GABA level, Mean [2]: 9.36E-12
